The compounds below were run against T1, Jak1 (Homo sapiens, UniProt P23458) (assay: Jak Biochemical HTRF Assay (Jak1)). Conditions: IC50 class, recombinant GST-tagged catalytic domain, read-out: Jak1 activity.
T1 construct: using a recombinant purified GST-tagged catalytic domain for each enzyme; GST; purchased Invitrogen M4290
Text: Compounds of formula I can be prepared according to the general procedures described in the Schemes and Examples herein, using appropriate materials. Representative compounds of the present invention are exemplified herein below. The compounds exemplified are not, however, to be construed as limiting the scope of the invention in any manner. The examples further illustrate details for the preparation of the compounds of the present invention. Those skilled in the art will readily understand that known variations of protecting groups, of reagents, as well as of the conditions and processes of the following preparative procedures, can be used to prepare these compounds. It is also understood that whenever a chemical reagent is not commercially available, such a chemical reagent can be readily prepared by those skilled in the art by either following or adapting known methods described in the literature or described herein. Chiral analogs were prepared via incorporation of chiral reagents or obtained after chiral chromatography separation of a racemically generated analog. All temperatures are degrees Celsius unless otherwise noted. Mass spectra (MS) were measured either by electrospray ion-mass spectroscopy (ESMS) or by atmospheric pressure chemical ionization mass spectroscopy (APCI). Jak1 data were obtained using the in vitro assay described below.
Jak Biochemical HTRF Assay Protocol
The ability of compounds to inhibit the activity of Jak1, Jak2, Jak3, and Tyk2 was measured using a recombinant purified GST-tagged catalytic domain for each enzyme (Invitrogen Jak1 #M4290, […]) in an HTRF format biochemical assay. The reactions employed a common peptide substrate, LCB-EQEDEPEGDYFEWLW-NH2 (in-house). The basic assay protocol is as follows: First, […] of diluted compounds in DMSO were dispensed into the wells of a dry 384-well Black plate (Greiner #781076) using a Labcyte Echo 555 acoustic dispenser. Subsequent reagent additions employed an Agilent Bravo. Next, 18 μL, of 1.11X enzyme and 1.11X substrate in 1X assay buffer (Invitrogen kinase buffer #PV3189, 2 mM DTT, 0.05% BSA) were added to the wells and shaken and then preincubated for 30 minutes at room temperature to allow compound binding to equilibrate. After equilibration, 2 μL of 10X ATP in 1X assay buffer was added to initiate the kinase reaction and the plates were shaken and then incubated at room temperature for 120 minutes. At the end of the incubation, 20 μL of 2X stop buffer (streptavidin-Dylight (Thermo #21845), Eu-tagged pY20 antibody (Perkin Elmer #AD0067), EDTA, HEPES, and Triton) was added to quench the reaction. Plates were shaken and centrifuged and then incubated 60 minutes at room temperature and then read on a Perkin Elmer Envision (λex=337 nm, λem=665 and 615 nm, TRF delay time=20 μs). HTRF signal=10,000*665 nm reading/615 nm reading. After normalization to untreated controls, the percent inhibition of the HTRF signal at each compound concentration was calculated. The plot of percent inhibition versus the log of compound concentration was fit with a 4-parameter dose response equation to calculate IC50 values.

T1 sequence (P23458 875-1153 limits assumed): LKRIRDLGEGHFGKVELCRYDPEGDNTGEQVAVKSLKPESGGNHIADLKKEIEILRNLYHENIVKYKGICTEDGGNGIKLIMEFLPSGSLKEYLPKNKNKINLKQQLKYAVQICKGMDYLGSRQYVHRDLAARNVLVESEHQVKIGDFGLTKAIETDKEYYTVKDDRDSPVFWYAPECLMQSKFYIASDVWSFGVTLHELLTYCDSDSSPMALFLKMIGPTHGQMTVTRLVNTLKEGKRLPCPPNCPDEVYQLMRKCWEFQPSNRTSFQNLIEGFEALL

Row | Structure (SMILES) | IC50
1 | O=C(OC(CCN1CCOCC1)c1ccccc1)N1CCC[C@@H]2C1CCN2c1ncnc2[nH]ccc12 (mixture of isomers) [Example 8-3, (1R and 1S)-3-(morpholin-4-yl)-1-phenylpropyl (3aR,7aR)-1-(7H-pyrrolo[2,3-d]pyrimidin-4-yl)octahydro-4-pyrrolo[3,2-b]pyridine-4-carboxylate] | 0.1 to 1 µM
2 | c1nc(N2CCC3NCCC[C@@H]32)c2cc[nH]c2n1 (single isomer, unassigned) [Enantiomer 1] | 0.1 to 1 µM
3 | CN(C)CCOC(=O)N1CCC[C@@H]2[C@H]1CCN2c1ncnc2[nH]ccc12 (single isomer, unassigned) [Example 3-38] | 0.1 to 1 µM
4 | CCC(=O)N1CCC[C@@H]2[C@H]1CCN2c1ncnc2[nH]ccc12 (single isomer, unassigned) [Example 29-7] | 0.1 to 1 µM
5 | COCC(=O)N1CCC[C@@H]2[C@H]1CCN2c1ncnc2[nH]ccc12 (single isomer, unassigned) [Example 29-8] | 0.1 to 1 µM
6 | O=S(=O)(N1CCC[C@@H]2[C@H]1CCN2c1ncnc2[nH]ccc12)C(F)(F)F (single isomer, unassigned) [Example 32-5] | 0.1 to 1 µM
7 | O=C(OCCCc1cccnc1)N1CCCC2C1CCN2c1ncnc2[nH]ccc12 (stereo not drawn) [Example 3-5, 3-pyridin-3-ylpropyl 1-(7H-pyrrolo[2,3-d]pyrimidin-4-yl)octahydro-4H-pyrrolo[3,2-b]-pyridine-4-carboxylate] | 0.01 to 0.1 µM
8 | O=C(OCc1ccc(Cl)cc1)N1CCCC2C1CCN2c1ncnc2[nH]ccc12 (stereo not drawn) [Example 3-6, 4-chlorobenzyl 1-(7H-pyrrolo[2,3-d]pyrimidin-4-yl)octahydro-4H-pyrrolo[3,2-b]-pyridine-4-carboxylate] | 0.01 to 0.1 µM
9 | O=C(OCCCc1ccccc1)N1CCCC2C1CCN2c1ncnc2[nH]ccc12 (stereo not drawn) [Example 3-7, 3-phenylpropyl 1-(7H-pyrrolo[2,3-d]pyrimidin-4-yl)octahydro-4H-pyrrolo[3,2-b]-pyridine-4-carboxylate] | 0.01 to 0.1 µM
10 | O=C(OCCc1ccccc1)N1CCCC2C1CCN2c1ncnc2[nH]ccc12 (stereo not drawn) [Example 3-8, 2-phenylethyl 1-(7H-pyrrolo[2,3-d]pyrimidin-4-yl)octahydro-4H-pyrrolo[3,2-b]pyridine-4-carboxylate] | 0.01 to 0.1 µM
11 | O=C(OCc1cccc(F)c1)N1CCCC2C1CCN2c1ncnc2[nH]ccc12 (stereo not drawn) [Example 3-9, 3-fluorobenzyl 1-(7H-pyrrolo[2,3-d]pyrimidin-4-yl)octahydro-4H-pyrrolo[3,2-b]-pyridine-4-carboxylate] | 0.01 to 0.1 µM
12 | O=C(OC1CCOCC1)N1CCCC2C1CCN2c1ncnc2[nH]ccc12 (stereo not drawn) [Example 3-10, tetrahydro-2H-pyran-4-yl 1-(7H-pyrrolo[2,3-d]pyrimidin-4-yl)octahydro-4H-pyrrolo[3,2-b]pyridine-4-carboxylate] | 0.01 to 0.1 µM
13 | O=C(OC1Cc2ccccc2C1)N1CCCC2C1CCN2c1ncnc2[nH]ccc12 (stereo not drawn) [Example 3-11, 2,3-dihydro-1H-inden-2-yl 1-(7H-pyrrolo[2,3-d]pyrimidin-4-yl)octahydro-4H-pyrrolo[3,2-b]pyridine-4-carboxylate] | 0.01 to 0.1 µM
14 | O=C(OCc1ccccn1)N1CCCC2C1CCN2c1ncnc2[nH]ccc12 (stereo not drawn) [Example 3-12, pyridin-2-ylmethyl 1-(7H-pyrrolo[2,3-d]pyrimidin-4-yl)octahydro-4H-pyrrolo[3,2-b]-pyridine-4-carboxylate] | 0.01 to 0.1 µM
15 | O=C(OCc1ccncc1)N1CCCC2C1CCN2c1ncnc2[nH]ccc12 (stereo not drawn) [Example 3-13, pyridin-4-ylmethyl 1-(7H-pyrrolo[2,3-d]pyrimidin-4-yl)octahydro-4H-pyrrolo[3,2-b]-pyridine-4-carboxylate] | 0.01 to 0.1 µM
16 | O=C(OCc1ccc2ccccc2c1)N1CCCC2C1CCN2c1ncnc2[nH]ccc12 (stereo not drawn) [Example 3-15, naphthalen-2-ylmethyl 1-(7H-pyrrolo[2,3-d]pyrimidin-4-yl)octahydro-4H-pyrrolo[3,2-b]pyridine-4-carboxylate] | 0.01 to 0.1 µM
17 | Cc1cccc(COC(=O)N2CCCC3C2CCN3c2ncnc3[nH]ccc23)c1 (stereo not drawn) [Example 3-16, 3-methylbenzyl 1-(7H-pyrrolo[2,3-d]pyrimidin-4-yl)octahydro-4H-pyrrolo[3,2-b]-pyridine-4-carboxylate] | 0.01 to 0.1 µM

More lines, now with the values ahead:

Row | IC50 | Structure (SMILES)
18 | 0.01 to 0.1 µM | CC(Cc1ccccc1)C(=O)N1CCC[C@@H]2[C@H]1CCN2c1ncnc2[nH]ccc12 (mixture of isomers) [Example 29-56, (2S and 2R)-2-methyl-3-phenyl-1-[(3aR,7aR)-1-(7H-pyrrolo[2,3-d]pyrimidin-4-yl)octahydro-4H-pyrrolo[3,2-b]pyridine-4-yl]propan-1-one]
19 | 0.01 to 0.1 µM | O=C(OCc1ccccc1)N1CCCC2C1CCN2c1ncnc2[nH]ccc12 (racemic) [Example 1, (3aS,7aS and 3aR,7aR) benzyl 1-(7H-pyrrolo[2,3-d]pyrimidin-4-yl)octahydro-4H-pyrrolo[3,2-b]-pyridine-4-carboxylate]
20 | 0.01 to 0.1 µM | CCCCOC(=O)N1CCCC2C1CCN2c1ncnc2[nH]ccc12 (racemic) [Example 3-3, butyl 1-(7H-pyrrolo[2,3-d]pyrimidin-4-yl)octahydro-4H-pyrrolo[3,2-b]pyridine-4-carboxylate]
21 | 0.01 to 0.1 µM | CCCCC(=O)N1CCCC2C1CCN2c1ncnc2[nH]ccc12 (racemic) [Example 29-2, 4-(4-pentanoyloctahydro-1H-pyrrolo[3,2-b]pyridin-1-yl)-7H-pyrrolo[2,3-d]pyrimidine]
22 | 0.01 to 0.1 µM | O=C(c1ccccc1)N1CCCC2C1CCN2c1ncnc2[nH]ccc12 (racemic) [Example 29-3, 4-[4-(phenylcarbonyl)octahydro-1H-pyrrolo[3,2-b]pyridin-1-yl]-7H-pyrrolo[2,3-d]-pyrimidine]
23 | 0.01 to 0.1 µM | CC(C(=O)N1CCC[C@@H]2[C@H]1CCN2c1ncnc2[nH]ccc12)N1CCOCC1 (mixture of isomers) [Example 29-43, 4-[(3aR,7aR)-4-(2-morpholin-4-ylpropanoyl)octahydro-1H-pyrrolo[3,2-b]pyridin-1-yl]7H-pyrrolo[2,3-d]pyrimidine]
24 | 0.01 to 0.1 µM | O=C(OCCF)N1CCC[C@@H]2[C@H]1CCN2c1ncnc2[nH]ccc12 (single isomer, unassigned) [Example 3-30]
25 | 0.01 to 0.1 µM | COCCOC(=O)N1CCC[C@@H]2[C@H]1CCN2c1ncnc2[nH]ccc12 (single isomer, unassigned) [Example 3-35]
26 | 0.01 to 0.1 µM | O=C(OCCOCC(F)(F)F)N1CCC[C@@H]2[C@H]1CCN2c1ncnc2[nH]ccc12 (single isomer, unassigned) [Example 3-43]
27 | 0.01 to 0.1 µM | CCS(=O)(=O)N1CCC[C@@H]2[C@H]1CCN2c1ncnc2[nH]ccc12 (single isomer, unassigned) [Example 32-3]
28 | 0.01 to 0.1 µM | O=S(=O)(c1ccccc1)N1CCC[C@@H]2[C@H]1CCN2c1ncnc2[nH]ccc12 (single isomer, unassigned) [Example 32-6]
29 | 0.01 to 0.1 µM | O=S(=O)(Cc1ccccc1)N1CCC[C@@H]2[C@H]1CCN2c1ncnc2[nH]ccc12 (single isomer, unassigned) [Example 32-7]
30 | 0.01 to 0.1 µM | O=C(OCc1cccnc1)N1CCCC2C1CCN2c1ncnc2[nH]ccc12 [Example 3-1, (3aS,7aS and 3aR,7aR) pyridin-3-ylmethyl 1-(7H-pyrrolo[2,3-d]pyrimidin-4-yl)octahydro-4H-pyrrolo[3,2-b]pyridine-4-carboxylate]
31 | 0.01 to 0.1 µM | O=C(OCc1ccc(F)cc1)N1CCCC2C1CCN2c1ncnc2[nH]ccc12 (stereo not drawn) [Example 3-2, 4-fluorobenzyl 1-(7H-pyrrolo[2,3-d]pyrimidin-4-yl)octahydro-4H-pyrrolo[3,2-b]-pyridine-4-carboxylate]
32 | 0.01 to 0.1 µM | COc1cccc(COC(=O)N2CCCC3C2CCN3c2ncnc3[nH]ccc23)c1 (stereo not drawn) [Example 3-4, 3-methoxybenzyl 1-(7H-pyrrolo[2,3-d]pyrimidin-4-yl)octahydro-4H-pyrrolo[3,2-b]-pyridine-4-carboxylate]
33 | 0.001 to 0.01 µM | COc1ccc(COC(=O)N2CCCC3C2CCN3c2ncnc3[nH]ccc23)cc1 (stereo not drawn) [Example 3-14, 4-methoxybenzyl 1-(7H-pyrrolo[2,3-d]pyrimidin-4-yl)octahydro-4H-pyrrolo[3,2-b]-pyridine-4-carboxylate]

From patent US8937077B2, “Bicyclic diamines as janus kinase inhibitors” (Merck Sharp & Dohme Corp., priority 2010, dated 2015)
